Data taken from ChEMBL document CHEMBL1671722, “Comparative in vitro activity profiles of novel bis-indole antibacterials against gram-positive and gram-negative clinical isolates” (Antimicrob Agents Chemother, 2010).

What was measured:
[1] = tested on: Staphylococcus aureus; assay: Antimicrobial activity against methicillin-susceptible Staphylococcus aureus by broth microdilution method; format: functional
[2] = tested on: Staphylococcus aureus; assay: Antimicrobial activity against methicillin-resistant Staphylococcus aureus by broth microdilution method; format: functional
[3] = tested on: Staphylococcus epidermidis; assay: Antimicrobial activity against methicillin-susceptible Staphylococcus epidermidis by broth microdilution method; format: functional
[4] = tested on: Staphylococcus epidermidis; assay: Antimicrobial activity against methicillin-resistant Staphylococcus epidermidis by broth microdilution method; format: functional
[5] = tested on: Enterococcus faecalis; assay: Antimicrobial activity against vancomycin-susceptible Enterococcus faecalis by broth microdilution method; format: functional
[6] = tested on: Enterococcus faecalis; assay: Antimicrobial activity against vancomycin-resistant Enterococcus faecalis by broth microdilution method; format: functional
[7] = tested on: Enterococcus faecium; assay: Antimicrobial activity against vancomycin-susceptible Enterococcus faecium by broth microdilution method; format: functional
[8] = tested on: Enterococcus faecium; assay: Antimicrobial activity against vancomycin-resistant Enterococcus faecium by broth microdilution method; format: functional
[9] = tested on: Streptococcus pneumoniae; assay: Antimicrobial activity against penicillin-susceptible Streptococcus pneumoniae by broth microdilution method; format: functional
[10] = tested on: Streptococcus pneumoniae; assay: Antimicrobial activity against penicillin-intermediate Streptococcus pneumoniae by broth microdilution method; format: functional
[11] = tested on: Streptococcus pneumoniae; assay: Antimicrobial activity against penicillin-resistant Streptococcus pneumoniae by broth microdilution method; format: functional
[12] = tested on: Streptococcus agalactiae; assay: Antimicrobial activity against Streptococcus agalactiae by broth microdilution method; format: functional
[13] = tested on: Clostridioides difficile; assay: Antimicrobial activity against Clostridium difficile by broth microdilution method; format: functional
[14] = tested on: Escherichia coli; assay: Antimicrobial activity against Escherichia coli by broth microdilution method; format: functional
[15] = tested on: Klebsiella pneumoniae; assay: Antimicrobial activity against Klebsiella pneumoniae by broth microdilution method; format: functional
[16] = tested on: Klebsiella pneumoniae; assay: Antimicrobial activity against ESBL-production Klebsiella pneumoniae by broth microdilution method; format: functional
[17] = tested on: Serratia marcescens; assay: Antimicrobial activity against Serratia marcescens by broth microdilution method; format: functional
[18] = tested on: Proteus mirabilis; assay: Antimicrobial activity against Proteus mirabilis by broth microdilution method; format: functional
[19] = tested on: Acinetobacter baumannii; assay: Antimicrobial activity against Acinetobacter baumannii by broth microdilution method; format: functional
[20] = tested on: Acinetobacter baumannii; assay: Antimicrobial activity against multiple dug-resistant Acinetobacter baumannii by broth microdilution method; format: functional
[21] = tested on: Pseudomonas aeruginosa; assay: Antimicrobial activity against Pseudomonas aeruginosa by broth microdilution method; format: functional
[22] = tested on: Burkholderia cepacia; assay: Antimicrobial activity against Burkholderia cepacia by broth microdilution method; format: functional
[23] = tested on: Haemophilus influenzae; assay: Antimicrobial activity against Haemophilus influenzae by broth microdilution method; format: functional
[24] = Cytotoxicity against HeLa cells after 3 days by MTS assay; format: cell-based; details: human

c1cc2cc(-c3ccc(-c4cc5ccc(C6=NCCCN6)cc5[nH]4)cc3)[nH]c2cc1C1=NCCCN1
0.03 µg/mL: MIC50 [3] | MIC90 [6] | MIC50 [9] | MIC90 [9] | MIC50 [10] | MIC90 [10] | MIC50 [11] | MIC [12] | MIC50 [12] | MIC90 [12]
0.004 µg/mL: MIC50 [7] | MIC [8] | MIC50 [8] | MIC90 [8]
0.12 µg/mL: MIC50 [1] | MIC90 [2] | MIC90 [13] | MIC50 [14] | MIC50 [16] | MIC [17] | MIC50 [17] | MIC90 [22]
2 µg/mL: MIC90 [18] | MIC50 [20]
4 µg/mL: MIC90 [19] | MIC90 [20] | MIC90 [23] | CC50 at 72 h [24]
0.06 µg/mL: MIC50 [2] | MIC90 [3] | MIC90 [4] | MIC50 [5] | MIC90 [5] | MIC90 [11] | MIC50 [13] | MIC50 [22]
0.015 µg/mL: MIC50 [4] | MIC50 [6] | MIC90 [7]
1 µg/mL: MIC50 [18] | MIC90 [21] | MIC50 [23]
0.5 µg/mL: MIC90 [1] | MIC90 [15] | MIC90 [16] | MIC50 [19]
0.25 µg/mL: MIC90 [14] | MIC50 [15] | MIC90 [17] | MIC50 [21]

CCCCCCCCCC(=O)N[C@@H](Cc1c[nH]c2ccccc12)C(=O)N[C@H](CC(N)=O)C(=O)N[C@@H](CC(=O)O)C(=O)N[C@@H]1C(=O)NCC(=O)N[C@@H](CCCN)C(=O)N[C@@H](CC(=O)O)C(=O)N[C@H](C)C(=O)N[C@@H](CC(=O)O)C(=O)NCC(=O)N[C@H](CO)C(=O)N[C@@H]([C@H](C)CC(=O)O)C(=O)N[C@@H](CC(=O)c2ccccc2N)C(=O)O[C@@H]1C
0.12 µg/mL: MIC90 [11]
0.25 µg/mL: MIC50 [2] | MIC90 [2] | MIC90 [9] | MIC90 [10]
0.06 µg/mL: MIC50 [9] | MIC50 [10] | MIC50 [11]
2 µg/mL: MIC90 [5] | MIC90 [6] | MIC50 [8] | MIC90 [12]
4 µg/mL: MIC50 [7] | MIC90 [7] | MIC90 [8]
1 µg/mL: MIC90 [3] | MIC90 [4] | MIC50 [5]
0.5 µg/mL: MIC50 [1] | MIC90 [1] | MIC [3] | MIC50 [3] | MIC [4] | MIC50 [4] | MIC50 [6] | MIC50 [12]

CO/N=C(\C(=O)N[C@@H]1C(=O)N2C(C(=O)O)=C(COC(C)=O)CS[C@H]12)c1csc(N)n1 [CEFOTAXIME]
> 4 µg/mL: MIC90 [23]
1 µg/mL: MIC50 [23]

O=C(O)c1cn(C2CC2)c2cc(N3CCNCC3)c(F)cc2c1=O [CIPROFLOXACIN]
2 µg/mL: MIC50 [14] | MIC50 [18] | MIC50 [20] | MIC50 [22] | MIC90 [22]
> 8 µg/mL: MIC50 [16] | MIC90 [16] | MIC90 [18] | MIC [21] | MIC50 [21] | MIC90 [21]
4 µg/mL: MIC90 [14] | MIC90 [20]
> 2 µg/mL: MIC90 [19]
0.25 µg/mL: MIC50 [19]
> 32 µg/mL: MIC50 [15] | MIC90 [15]

CCC[C@@H]1C[C@@H](C(=O)N[C@@H]([C@H]2O[C@H](SC)[C@H](O)[C@@H](O)[C@H]2O)[C@H](C)Cl)N(C)C1 [CLINDAMYCIN]
4 µg/mL: MIC50 [13]
> 8 µg/mL: MIC90 [13]

C[C@@H](O)[C@H]1C(=O)N2C(C(=O)O)=C(SCCNC=N)C[C@H]12 [IMIPENEM ANHYDROUS]
0.03 µg/mL: MIC90 [1] | MIC50 [10]
0.12 µg/mL: MIC50 [15]
0.015 µg/mL: MIC50 [1] | MIC [3] | MIC50 [3] | MIC90 [3]
< 0.008 µg/mL: MIC [9] | MIC50 [9] | MIC90 [9]
0.25 µg/mL: MIC90 [10] | MIC50 [11] | MIC50 [14] | MIC90 [14] | MIC50 [16]
1 µg/mL: MIC50 [2] | MIC50 [5] | MIC90 [11] | MIC90 [15] | MIC90 [16] | MIC50 [21]
2 µg/mL: MIC50 [6] | MIC90 [6]
4 µg/mL: MIC90 [5] | MIC50 [13] | MIC50 [17] | MIC50 [18] | MIC50 [20] | MIC [22] | MIC50 [22]
0.05 µg/mL: MIC [21]
> 8 µg/mL: MIC90 [4] | MIC50 [7] | MIC90 [7] | MIC90 [17] | MIC90 [21] | MIC90 [22]
> 32 µg/mL: MIC90 [19]
0.06 µg/mL: MIC [12] | MIC50 [12] | MIC90 [12]
8 µg/mL: MIC90 [2] | MIC50 [4] | MIC [8] | MIC50 [8] | MIC90 [8] | MIC90 [13] | MIC90 [18]
